# Data as given in patent publication US12331051B2 (priority 2021, dated 2025).
# Entries after “also recorded” stand apart in the source; their conditions may differ. Like-named read-outs stand apart in the source and are kept apart here.
# Key:
# [1] = molecular target: CHRM2 (M2 muscarinic receptor) (Homo sapiens, UniProt P08172); assay: BRET-based G protein dissociation assay; format: cell-based
# 5-HT5A receptor = molecular target: T1, 5-HT5A receptor (Homo sapiens, UniProt P47898); assay: G protein dissociation assay; format: cell-based
# T1 construct: expressed in transfected cells; host or cells: HEK293T
# [2] = molecular target: ADRb2 (β2 adrenergic receptor) (Homo sapiens, UniProt P07550); assay: BRET-based G protein dissociation assay; format: cell-based
# [3] = system: prefrontal cortex region of mice; assay: Spine density analysis in the prefrontal cortex after FST; format: in vivo, mouse; settings: both sexes, 1 mg/kg, ~26 hour after treatment
# Procedure: Following testing in the FST, brains were collected for spine density analysis in the prefrontal cortex region (˜26 hour after treatment; FIG. 25H).
# [4] = molecular target: ADRa2B (α2B adrenergic receptor) (Homo sapiens, UniProt P18089); assay: BRET-based G protein dissociation assay; format: cell-based
# [5] = system: 5-HT1 receptor subtypes: 5-HT1A, 1B, 1D, 1E, and 1F; format: cell-based, human; settings: FIG. 15, FIG. 16A/B; listed as E559 polymorph
# D2 dopamine receptor = D2 dopamine receptor (Homo sapiens, UniProt P14416); assay: BRET-based G protein dissociation assay; format: cell-based
# 5-HT6 = 5-HT6 (Homo sapiens, UniProt P50406); assay: G protein dissociation and cAMP accumulation second messenger assays; format: cell-based; set-up: expressed in transfected cells; host or cells: HEK293T
# D4 dopamine receptor = molecular target: T2, D4 dopamine receptor (Homo sapiens, UniProt P21917); assay: BRET-based G protein dissociation assay; format: cell-based
# T2 sequence (P21917 1-419): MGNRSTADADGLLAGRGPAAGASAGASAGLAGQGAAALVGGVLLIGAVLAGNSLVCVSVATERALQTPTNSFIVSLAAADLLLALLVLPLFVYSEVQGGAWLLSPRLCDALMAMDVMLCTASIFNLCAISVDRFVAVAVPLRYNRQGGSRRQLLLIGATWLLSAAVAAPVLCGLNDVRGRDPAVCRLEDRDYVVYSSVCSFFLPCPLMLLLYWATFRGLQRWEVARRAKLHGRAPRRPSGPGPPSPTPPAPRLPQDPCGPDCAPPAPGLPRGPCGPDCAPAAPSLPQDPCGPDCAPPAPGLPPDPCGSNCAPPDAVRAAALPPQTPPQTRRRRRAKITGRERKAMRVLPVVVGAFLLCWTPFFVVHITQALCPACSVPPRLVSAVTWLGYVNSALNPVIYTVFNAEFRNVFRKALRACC
# [6] = molecular target: H1 histaminergic receptor (Homo sapiens, UniProt P35367); assay: BRET-based G protein dissociation assay; format: cell-based
# D1 dopamine receptor = D1 dopamine receptor (Homo sapiens, UniProt P21728); assay: BRET-based G protein dissociation assay; format: cell-based
# [7] = Single-dose comparative pharmacokinetic study, IV and oral, fasted and fed; format: in vivo, Beagle dogs
# Procedure: A single-dose comparative pharmacokinetic (PK) study was conducted in Beagle dogs to assess the oral bioavailability and the effect of food on the “E559 polymorph” (FIG. 12). Four male dogs were used in 3 test groups in a cross-over design with at least 3 days washout period between each test group (Groups 1, 2 and 3). In Group 1, four male dogs received a single intravenous (IV) dose of 0.0324 mg/kg of the “polymorph E559”. In Group 2 the same four dogs received a single oral dose of 0.324 mg/kg of the “polymorph E559” in fasted state. In Group 3 the same four dogs received a single oral dose of 0.324 mg/kg of the “E559 polymorph” in the fed state (same oral dose amount as in Group 2). Blood samples were collected from all dogs at pre-dose and 0.08, 0.25, 0.5, 1, 2, 4, 8, and 24 hours post dose to measure the “E559 polymorph” levels by LC-MS/MS method conducted as described in Example 3.
# [8] = molecular target: T3, ADRa2C (α2C adrenergic receptor) (Homo sapiens, UniProt P18825); assay: cell-based
# T3 sequence (P18825 1-462): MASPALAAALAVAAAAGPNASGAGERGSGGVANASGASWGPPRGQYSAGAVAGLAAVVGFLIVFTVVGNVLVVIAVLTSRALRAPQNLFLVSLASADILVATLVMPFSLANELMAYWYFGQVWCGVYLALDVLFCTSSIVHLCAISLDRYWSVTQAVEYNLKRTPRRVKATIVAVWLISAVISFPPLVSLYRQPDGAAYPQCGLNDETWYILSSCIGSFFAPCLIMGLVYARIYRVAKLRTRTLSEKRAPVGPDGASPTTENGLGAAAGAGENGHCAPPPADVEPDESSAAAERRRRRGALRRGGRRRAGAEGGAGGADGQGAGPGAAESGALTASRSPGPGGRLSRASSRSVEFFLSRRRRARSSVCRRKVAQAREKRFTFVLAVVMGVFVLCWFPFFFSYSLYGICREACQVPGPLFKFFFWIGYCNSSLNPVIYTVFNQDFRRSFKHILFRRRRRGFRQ
# 5-HT4 receptor = molecular target: T4, 5-HT4 receptor (Homo sapiens, UniProt Q13639); assay: G protein dissociation assay; format: cell-based; settings: FIG. 15
# T4 construct: expressed in transfected cells; host or cells: HEK293T
# D3 dopamine receptor = D3 dopamine receptor (Homo sapiens, UniProt P35462); assay: BRET-based G protein dissociation assay; format: cell-based
# [9] = molecular target: ADRb1 (β1 adrenergic receptor) (Homo sapiens, UniProt P08588); assay: BRET-based G protein dissociation assay; format: cell-based
# [10] = percentage of the reference ligand-induced maximal response, read-out: Emax
# D3 dopamine receptor, sequence (P35462 whole entry): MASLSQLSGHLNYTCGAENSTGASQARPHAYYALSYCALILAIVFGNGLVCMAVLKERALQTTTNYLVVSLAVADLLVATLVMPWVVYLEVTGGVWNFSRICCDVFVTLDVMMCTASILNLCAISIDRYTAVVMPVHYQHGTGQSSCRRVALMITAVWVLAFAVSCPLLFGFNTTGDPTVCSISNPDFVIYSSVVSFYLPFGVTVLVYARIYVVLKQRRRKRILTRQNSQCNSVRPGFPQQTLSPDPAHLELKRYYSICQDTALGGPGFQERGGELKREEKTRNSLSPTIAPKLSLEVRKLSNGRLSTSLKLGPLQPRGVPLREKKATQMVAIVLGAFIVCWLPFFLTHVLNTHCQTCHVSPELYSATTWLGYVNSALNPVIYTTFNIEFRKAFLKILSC
# D1 dopamine receptor, sequence (P21728 whole entry): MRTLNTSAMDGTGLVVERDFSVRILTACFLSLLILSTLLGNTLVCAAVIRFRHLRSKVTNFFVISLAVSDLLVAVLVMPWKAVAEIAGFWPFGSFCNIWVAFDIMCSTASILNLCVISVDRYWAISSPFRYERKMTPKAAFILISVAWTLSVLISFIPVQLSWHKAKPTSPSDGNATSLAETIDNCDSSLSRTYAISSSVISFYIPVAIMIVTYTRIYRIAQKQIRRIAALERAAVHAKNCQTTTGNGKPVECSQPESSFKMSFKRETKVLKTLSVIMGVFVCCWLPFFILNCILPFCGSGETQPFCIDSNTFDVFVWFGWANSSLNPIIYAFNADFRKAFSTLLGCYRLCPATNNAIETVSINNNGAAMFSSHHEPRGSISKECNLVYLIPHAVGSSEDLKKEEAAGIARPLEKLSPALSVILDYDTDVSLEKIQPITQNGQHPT
# D2 dopamine receptor, sequence (P14416 whole entry): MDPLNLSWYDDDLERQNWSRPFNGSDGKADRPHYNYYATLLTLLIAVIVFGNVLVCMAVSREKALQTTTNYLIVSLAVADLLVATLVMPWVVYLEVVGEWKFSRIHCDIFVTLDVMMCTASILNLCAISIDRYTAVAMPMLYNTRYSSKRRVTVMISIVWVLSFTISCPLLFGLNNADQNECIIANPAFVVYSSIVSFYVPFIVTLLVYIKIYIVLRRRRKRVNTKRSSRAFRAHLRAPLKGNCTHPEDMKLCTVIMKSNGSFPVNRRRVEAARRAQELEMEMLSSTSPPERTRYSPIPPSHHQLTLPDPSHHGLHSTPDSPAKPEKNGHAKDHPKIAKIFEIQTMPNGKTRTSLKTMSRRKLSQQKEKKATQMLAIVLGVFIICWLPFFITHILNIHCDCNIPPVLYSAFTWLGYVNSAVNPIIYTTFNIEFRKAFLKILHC
# T4 sequence (Q13639 whole entry): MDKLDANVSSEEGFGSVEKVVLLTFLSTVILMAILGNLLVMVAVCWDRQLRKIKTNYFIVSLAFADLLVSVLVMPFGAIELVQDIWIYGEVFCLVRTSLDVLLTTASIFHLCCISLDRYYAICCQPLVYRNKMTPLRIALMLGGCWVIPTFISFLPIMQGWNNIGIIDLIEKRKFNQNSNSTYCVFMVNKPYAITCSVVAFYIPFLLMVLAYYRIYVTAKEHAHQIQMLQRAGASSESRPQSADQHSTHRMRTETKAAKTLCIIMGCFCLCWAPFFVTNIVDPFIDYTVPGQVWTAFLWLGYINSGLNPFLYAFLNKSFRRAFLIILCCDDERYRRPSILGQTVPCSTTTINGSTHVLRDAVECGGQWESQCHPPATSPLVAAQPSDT
# T1 sequence (P47898 whole entry): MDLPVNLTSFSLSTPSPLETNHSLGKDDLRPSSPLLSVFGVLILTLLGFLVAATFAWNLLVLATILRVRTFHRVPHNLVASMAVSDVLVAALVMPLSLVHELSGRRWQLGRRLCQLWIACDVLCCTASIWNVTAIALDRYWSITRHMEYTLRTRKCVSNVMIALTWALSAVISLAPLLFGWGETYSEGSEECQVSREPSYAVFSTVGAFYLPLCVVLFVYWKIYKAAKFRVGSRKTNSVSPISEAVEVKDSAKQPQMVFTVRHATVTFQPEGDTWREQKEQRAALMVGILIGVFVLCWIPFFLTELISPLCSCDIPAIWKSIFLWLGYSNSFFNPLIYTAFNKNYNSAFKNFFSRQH
# CHRM2 (M2 muscarinic receptor), sequence (P08172 whole entry): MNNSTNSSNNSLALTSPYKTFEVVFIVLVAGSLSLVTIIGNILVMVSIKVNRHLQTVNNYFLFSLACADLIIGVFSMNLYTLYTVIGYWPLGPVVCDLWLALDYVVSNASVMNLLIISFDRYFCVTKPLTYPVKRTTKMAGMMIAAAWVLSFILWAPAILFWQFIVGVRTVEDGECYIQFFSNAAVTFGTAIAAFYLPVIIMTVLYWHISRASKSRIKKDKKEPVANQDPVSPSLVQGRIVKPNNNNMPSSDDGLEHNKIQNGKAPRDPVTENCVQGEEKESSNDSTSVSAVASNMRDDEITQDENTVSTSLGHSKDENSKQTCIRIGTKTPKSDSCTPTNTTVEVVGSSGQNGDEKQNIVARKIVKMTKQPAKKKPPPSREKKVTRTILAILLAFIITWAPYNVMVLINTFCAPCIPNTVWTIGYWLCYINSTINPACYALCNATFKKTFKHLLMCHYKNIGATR
# ADRb2 (β2 adrenergic receptor), sequence (P07550 whole entry): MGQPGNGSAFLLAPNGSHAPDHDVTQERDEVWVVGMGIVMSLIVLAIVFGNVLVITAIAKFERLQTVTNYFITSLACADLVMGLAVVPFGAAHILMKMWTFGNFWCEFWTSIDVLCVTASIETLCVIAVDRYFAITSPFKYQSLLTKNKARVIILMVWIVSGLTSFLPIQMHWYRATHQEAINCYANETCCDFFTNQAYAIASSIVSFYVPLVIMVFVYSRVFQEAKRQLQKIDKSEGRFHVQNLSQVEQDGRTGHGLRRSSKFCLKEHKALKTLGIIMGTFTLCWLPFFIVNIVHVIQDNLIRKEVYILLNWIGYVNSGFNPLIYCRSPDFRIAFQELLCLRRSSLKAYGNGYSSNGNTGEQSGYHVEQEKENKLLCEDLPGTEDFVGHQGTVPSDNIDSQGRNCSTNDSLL
# H1 histaminergic receptor, sequence (P35367 whole entry): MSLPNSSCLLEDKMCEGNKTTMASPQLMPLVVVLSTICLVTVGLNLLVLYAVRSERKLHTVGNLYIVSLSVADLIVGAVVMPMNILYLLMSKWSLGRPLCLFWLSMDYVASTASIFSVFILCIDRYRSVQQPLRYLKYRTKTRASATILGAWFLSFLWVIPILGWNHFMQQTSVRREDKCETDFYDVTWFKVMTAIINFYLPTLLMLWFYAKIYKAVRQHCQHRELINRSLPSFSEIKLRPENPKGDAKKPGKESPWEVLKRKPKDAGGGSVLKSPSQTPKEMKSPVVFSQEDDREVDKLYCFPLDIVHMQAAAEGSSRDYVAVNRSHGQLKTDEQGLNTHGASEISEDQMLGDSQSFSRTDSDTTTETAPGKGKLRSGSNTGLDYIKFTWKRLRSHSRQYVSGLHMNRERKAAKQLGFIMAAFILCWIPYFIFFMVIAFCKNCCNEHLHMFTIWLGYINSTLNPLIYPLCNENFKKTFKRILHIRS
# 5-HT6, sequence (P50406 whole entry): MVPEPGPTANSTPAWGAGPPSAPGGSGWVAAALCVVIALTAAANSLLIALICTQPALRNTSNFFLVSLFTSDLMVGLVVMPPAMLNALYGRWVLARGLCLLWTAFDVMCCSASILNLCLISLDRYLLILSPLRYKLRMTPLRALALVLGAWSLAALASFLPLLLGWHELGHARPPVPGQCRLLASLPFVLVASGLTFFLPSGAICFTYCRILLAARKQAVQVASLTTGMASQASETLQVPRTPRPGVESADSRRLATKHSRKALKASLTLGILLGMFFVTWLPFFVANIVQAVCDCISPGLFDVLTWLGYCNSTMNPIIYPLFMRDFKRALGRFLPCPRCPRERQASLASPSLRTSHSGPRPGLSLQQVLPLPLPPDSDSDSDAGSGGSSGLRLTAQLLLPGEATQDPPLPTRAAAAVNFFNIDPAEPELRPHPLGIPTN
# ADRb1 (β1 adrenergic receptor), sequence (P08588 whole entry): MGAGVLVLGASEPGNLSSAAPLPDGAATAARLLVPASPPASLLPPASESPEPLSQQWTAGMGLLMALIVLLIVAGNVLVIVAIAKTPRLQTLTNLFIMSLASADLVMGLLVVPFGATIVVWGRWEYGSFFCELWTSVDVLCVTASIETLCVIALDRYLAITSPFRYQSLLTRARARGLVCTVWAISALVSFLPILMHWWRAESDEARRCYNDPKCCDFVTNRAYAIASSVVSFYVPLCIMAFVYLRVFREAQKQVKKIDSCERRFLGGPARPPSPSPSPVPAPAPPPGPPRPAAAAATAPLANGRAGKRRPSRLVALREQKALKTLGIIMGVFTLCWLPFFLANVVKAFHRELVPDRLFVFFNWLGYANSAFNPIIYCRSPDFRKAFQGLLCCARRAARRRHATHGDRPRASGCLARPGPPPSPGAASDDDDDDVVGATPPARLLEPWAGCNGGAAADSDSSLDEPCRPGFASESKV
# ADRa2B (α2B adrenergic receptor), sequence (P18089 whole entry): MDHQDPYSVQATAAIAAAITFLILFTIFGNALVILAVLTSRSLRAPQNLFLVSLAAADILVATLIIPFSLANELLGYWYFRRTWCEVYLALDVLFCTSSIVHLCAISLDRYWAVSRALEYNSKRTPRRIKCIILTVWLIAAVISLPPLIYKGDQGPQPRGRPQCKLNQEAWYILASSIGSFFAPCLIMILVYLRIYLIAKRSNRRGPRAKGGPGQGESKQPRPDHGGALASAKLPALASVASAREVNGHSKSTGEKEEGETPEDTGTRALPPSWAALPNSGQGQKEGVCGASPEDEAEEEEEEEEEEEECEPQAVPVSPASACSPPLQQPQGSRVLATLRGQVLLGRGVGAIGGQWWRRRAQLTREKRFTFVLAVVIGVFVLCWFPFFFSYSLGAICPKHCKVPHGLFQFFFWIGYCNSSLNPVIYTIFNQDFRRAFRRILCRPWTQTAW
structure (smiles),measurement,setting,value
"CCN(CC)C(=O)[C@@H]1C=C2c3cccc4[nH]c(Br)c(c34)C[C@H]2N(C)C1 [E559, (5R, 8R)-2-Bromo-9,10-didehydro-N,N-diethyl-6-methylergoline-8-carboxamide hemi-D-tartrate]",EC50,[1],214 nM
same,functional activity at 5-HT5A,5-HT5A receptor; FIG. 15,antagonizes this receptor subtype
same,EC50,[2],4.26 nM
same,Kb,[2],17.6 nM
same,average spine density in prefrontal cortex,[3],significant increase in the average spine density
same,Kb,[4],79.2 nM
same,functional activity at 5-HT1 receptor subtypes,[5],moderate to potent agonist across all the 5-HT1 receptor subtypes; also recorded: exhibits the greatest potency (agonism) at 5-HT1F and 5-HT1D receptors
same,EC50,D2 dopamine receptor,0.35 nM
same,Emax,D2 dopamine receptor,77.4%
same,functional activity at 5-HT6,"5-HT6; FIG. 15, FIG. 16A/B",acts as a very potent partial agonist
same,EC50,D4 dopamine receptor,1.22 nM
same,Emax,D4 dopamine receptor,67.3%
same,EC50,[6],152 nM
same,Kb,[6],983 nM
same,EC50,D1 dopamine receptor,0.12 nM
same,Kb,D1 dopamine receptor,32.9 nM
same,oral bioavailability,[7]; oral 0.324 mg/kg vs IV 0.0324 mg/kg,good oral bioavailability
same,effect of food on oral bioavailability,"[7]; oral 0.324 mg/kg, fasted vs fed",no differences in the mean absolute and relative oral bioavailability between fasted and fed dogs
same,EC50,[8],10.3 nM
same,Emax,[8],40.5%
same,Kb,[8],16 nM
same,functional activity at 5-HT4,5-HT4 receptor,lack potent agonist activity at 5-HT4 receptor
same,EC50,D3 dopamine receptor,2.84 nM
same,Emax,D3 dopamine receptor,31.8%
same,Kb,D3 dopamine receptor,7.13 nM
same,EC50,[9],> 10000 nM
same,Kb,[9],95.2 nM
"CCN(CC)C(=O)[C@@H]1C=C2c3cccc4[nH]cc(c34)C[C@H]2N(C)C1 [LSD, lysergic acid diethylamide, reference compound]",EC50,"[1]; agonist mode, read-out: EC50",> 10000 nM
same,functional activity at 5-HT5A,5-HT5A receptor,acts as a partial agonist
same,EC50,D2 dopamine receptor,2.17 nM
same,Emax,D2 dopamine receptor,86%
same,functional activity at 5-HT6,5-HT6,acts as a very potent partial agonist
same,EC50,"D4 dopamine receptor; agonist mode, read-out: EC50",4.03 nM
same,Emax,D4 dopamine receptor; [10],91.9%
same,EC50,D1 dopamine receptor,108 nM
same,Emax,D1 dopamine receptor,41.3%
same,functional activity at 5-HT4,5-HT4 receptor,lack potent agonist activity at 5-HT4 receptor
same,EC50,"D3 dopamine receptor; agonist mode, read-out: EC50",7.57 nM
same,Emax,D3 dopamine receptor; [10],74.5%
